# Literature values, collected in patent publication US20100278900A1, “CHLORINE DIOXIDE BASED GUM AND CANDY” (BASF Corporation, priority 2009, published 2010).
# Details: in the absence of traditional abrasives
smiles,measurement,value
[O][Cl+][O-] [chlorine dioxide],polishing effect,polishing effect
